Experiment [1] has as its system serine protease trypsin. As to the kind of experiment: Ultrafiltration target-binding test of non-equimolar amidinophenylalanine mixture with trypsin (Example 2). The note with it: applied 6 8.4, 7 41.25, 10 2.5 μmol/l. Here is the method:
(§1) Incubation of the substance library and the inhibitor with thrombin took place at room temperature within 1 hour; solvent: 0.9% of NaCl in H2O. The separation of the protein-ligand complexes formed was accomplished by ultrafiltration (centrifugal). All filtration procedures and washes were carried out until dryness of the filters.
(§2) Filter: Microcon 10 (Amicon)
(§3) Centrifugation conditions: 9981×g, room temperature
(§4) Washing steps: 2×, each with 150 μl of 0.9% NaCl in H2O, 4° C.
(§5) Ultrafiltration and analysis of the filtrate were followed by washing steps and the liberation of the ligand (the active chemical substance) from the protein-ligand complex retained on the filter by treatment with 200 μl of water/methanol/TFA (49.5/49.5/1) at room temperature.
(§6) The blind sample (without thrombin) was treated analogously in all steps so that a comparison of the filtrates was possible. The filtrates obtained in all steps were dried by means of a speed-VAC concentrator, and later dissolved in the corresponding HPLC flow agent of defined amount applying ultrasound and agitation.
Identification of the ligands was accomplished by analytic HPLC: stationary phase Hypersil C 18 BDS, 3 μm, 150*0.3 mm, Fusica (LC Packings)—mobile phase: acetonitrile/water/TFA (35/65/0.01), isocratic, 5 μL/min, λ=[…].
The trypsin inhibitors of 3-amidinophenylalanine represented in the following by their structural formulae, were used as chemical substances, and the serine protease trypsin as target:
The experiments were performed as described in Example 1.

Experiment [2] has as its target T1, Thrombin (Homo sapiens, UniProt P00734). Nature of the experiment: Thrombin inhibition constant (Ki). The conditions noted are these: read-out: Ki [μmol/l] Thrombin. The experiment is classed as biochemical.
Experiment [3] deals with T2, Trypsin (Bos taurus, UniProt P00760).
T2 sequence (P00760 24-246): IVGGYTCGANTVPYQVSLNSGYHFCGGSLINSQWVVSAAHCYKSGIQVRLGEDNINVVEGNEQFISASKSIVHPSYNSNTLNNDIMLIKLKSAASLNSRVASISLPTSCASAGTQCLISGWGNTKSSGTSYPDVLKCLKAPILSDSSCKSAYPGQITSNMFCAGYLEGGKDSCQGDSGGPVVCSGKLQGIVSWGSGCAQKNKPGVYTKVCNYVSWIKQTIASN
Nature of the experiment: Trypsin inhibition constant (Ki). The format is biochemical. The conditions noted are these: read-out: Ki [μmol/l] Trypsin.

Experiment [4] has as its target T1, Thrombin. The conditions noted are these: thrombin inhibitor CRC 220 of Behringwerke; cited from earlier work.
For experiment [5], the target named is serine protease thrombin (Homo sapiens, UniProt P00734). Nature of the experiment: Ultrafiltration target-binding test of substance library with thrombin, HPLC of filtrates (Example 1). The note with it: 10 μmol/l each substance, 5 μmol/l thrombin, 1 hour room temperature. Here is the method: As a target, the serine protease thrombin was chosen.
The examined assays were of the following composition:
as §1, §2, §3, §4, §5, §6
Identification of the ligands was accomplished by analytic HPLC: stationary phase Hypersil C 18 BDS, 3 μm, 150*0.3 mm, Fusica (LC Packings)—mobile phase: acetonitrile/water/TFA (35/65/0.01), isocratic, 5 μL/min, λ=[…]. […]

Experiment [6] addresses β2-adrenoreceptor (Homo sapiens, UniProt P07550). Nature of the experiment: Ultrafiltration target-binding test of extract of taraxacum with β2-adrenoreceptor membrane preparation (Example 3).
Procedure: Substance used for the assays: • a) extr. taraxaci spir. sicc.
In the assays, the extract of taraxacum and the membrane preparation were combined in different stoichiometric ratios, dissolved in 200 μl of binding buffer (150 mM of NaCl, 50 mM of tris, pH 8.2 in water).
The receptor-ligand binding was completed by 30-minute-long incubation of the mixture at 30-34° C. The solutions were then placed on a Microcon 10 centrifugal filter and centrifuged at 9981×g for 15 min or until dryness of the filter. […] After two washing steps with binding buffer, the complexes present on the filter were separated by treatment with 200 μl of TFA (1/49.5/49.5).
The eluates from the following four filtration steps were centrifuged under vacuum until dryness, and the substances obtained were dissolved by means of ultrasound in 10 μl of the mobile phase of the HPLC (cf. Example 1), shortly before LC analysis.
The mark [7] stands for this setting: Sample 351, no receptor, extract 1.5 mg (7.5 g/l).
The mark [8] stands for this setting: Sample 355, receptor 1.04 pmol (5.2 nmol/l), extract 1.5 pmol (7.5 nmol/l).
[9] abbreviates: Sample 356, receptor 1.04 pmol (5.2 nmol/l), extract 1.5 pmol (7.5 nmol/l).
Setting [10] is: Sample 360, no receptor, extract 0.3 mg (1.5 g/l).
[11] abbreviates: Sample 361, receptor 1.04 pmol (5.2 nmol/l), extract 0.3 mg (1.5 g/l).
Setting [12] is: Sample 362, no receptor, extract 0.6 mg (3 g/l).
Setting [13] is: Sample 363, receptor 1.04 pmol (5.2 nmol/l), extract 0.6 mg (3 g/l).
Setting [14] is: Sample 364, no receptor, extract 1.0 mg (5.0 g/l).
The mark [15] stands for this setting: Sample 365, receptor 1.04 pmol (5.2 nmol/l), extract 1.0 mg (5.0 g/l).
The mark [16] stands for this setting: Sample 366, receptor 1.04 pmol (5.2 nmol/l), extract 1.5 mg (7.5 g/l).
The mark [17] stands for this setting: Sample 367, receptor 1.04 pmol (5.2 nmol/l), extract 1.5 mg (7.5 g/l).
Setting [18] is: Sample 369, receptor 1.04 pmol (5.2 nmol/l), extract 1.5 mg (7.5 g/l).
Setting [19] is: Sample 373, receptor 1.04 pmol (5.2 nmol/l), extract 1.5 mg (7.5 g/l).
[20] abbreviates: Sample 374, receptor 0.52 pmol (2.6 nmol/l), extract 1.5 mg (7.5 g/l).
[21] abbreviates: Sample 375, receptor 0.26 pmol (1.3 nmol/l), extract 1.5 mg (7.5 g/l).

Like-named read-outs stand apart in the source and are kept apart here.

Here are results for six compounds from US7232690B1, “Method and device for detecting and isolating pharmacological compounds being contained in substance mixtures” (LTS Lohmann Therapie-Systeme AG, priority 1999, dated 2007).

Chain of β2-adrenoreceptor (P07550 whole entry): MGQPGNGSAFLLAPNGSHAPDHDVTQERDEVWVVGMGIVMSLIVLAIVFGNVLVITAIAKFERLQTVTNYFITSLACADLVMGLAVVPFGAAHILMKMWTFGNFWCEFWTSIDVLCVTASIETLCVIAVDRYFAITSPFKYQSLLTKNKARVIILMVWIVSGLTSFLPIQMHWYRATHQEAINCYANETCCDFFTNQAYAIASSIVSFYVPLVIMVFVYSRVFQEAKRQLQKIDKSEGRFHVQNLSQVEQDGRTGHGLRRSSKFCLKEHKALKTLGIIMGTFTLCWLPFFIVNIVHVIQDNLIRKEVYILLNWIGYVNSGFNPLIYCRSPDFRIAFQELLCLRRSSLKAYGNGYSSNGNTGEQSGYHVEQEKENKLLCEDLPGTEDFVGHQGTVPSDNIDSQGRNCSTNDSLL

In the case of `CS(=O)(=O)N1CCN(C(=O)C(Cc2cccc(C(=N)N)c2)NS(=O)(=O)c2ccc3ccccc3c2)CC1` (stereo not shown) [Substance 6], in experiment [1] (Sample 261, without trypsin), the “1st Wash” value turned out to be 0.71 µmol/L, the “2nd Wash” value amounted to 0.05 µmol/L, the Filtrate is 7.44 µmol/L and the Liberation came to 0.01 µmol/L. In experiment [1] (Sample 262, trypsin 50 μmol/l), the “1st Wash” value was 0.23 µmol/L, the “2nd Wash” value is 0.15 µmol/L, the Filtrate amounted to 0.67 µmol/L and the Liberation amounted to 6.09 µmol/L. In experiment [2], the Ki was determined as 0.0021 µmol/L. For the same compound, in experiment [3], the Ki was 0.067 µmol/L.
As to `COc1cc(C)c(S(=O)(=O)N[C@@H](CC(=O)O)C(=O)N[C@H](Cc2ccc(C(=N)N)cc2)C(=O)N2CCCCC2)c(C)c1C` [CRC 220], the Ki in experiment [4] was 2.5 nM.
As to `Cl.Clc1cccc(Cl)c1NC1=NCCN1` [clonidin-HCL], the “Binding to target thrombin (difference between main experiment and blind sample)” value in experiment [5] is “not an inhibitor”.
For `CCOC(=O)C1CCN(C(=O)C(Cc2cccc(C(=N)N)c2)NS(=O)(=O)c2ccc3ccccc3c2)CC1` (stereo not shown) [Substance 10], in experiment [1] (Sample 261, without trypsin), the “1st Wash” value is 0.02 µmol/L, the “2nd Wash” value stood at 0.0013 µmol/L, the Filtrate stood at 0.05 µmol/L and the Liberation amounted to 0.0011 µmol/L. Moreover, in experiment [1] (Sample 262, trypsin 50 μmol/l), the “1st Wash” value was 0.0058 µmol/L, the “2nd Wash” value was 0.0012 µmol/L, the Filtrate stood at 0.02 µmol/L and the Liberation came to 0.53 µmol/L. Further, the Ki in experiment [2] stood at 0.36 µmol/L. Also, in experiment [3], the Ki was determined as 0.02 µmol/L.
On to `N=C(N)c1cccc(CC(NS(=O)(=O)c2ccc3ccccc3c2)C(=O)N2CCCCC2)c1` (stereo not shown) [Substance 7], for which, in experiment [1] (Sample 261, without trypsin), the “1st Wash” value came out at 3.13 µmol/L, the “2nd Wash” value turned out to be 0.26 µmol/L, the Filtrate is 31.57 µmol/L and the Liberation was 0.13 µmol/L. Besides, in experiment [1] (Sample 262, trypsin 50 μmol/l), the “1st Wash” value came to 3.68 µmol/L, the “2nd Wash” value is 1.29 µmol/L, the Filtrate was determined as 22.22 µmol/L and the Liberation stood at 8.49 µmol/L. In addition, in experiment [2], the Ki was determined as 0.065 µmol/L.
In the case of `COc1cc(/C=C/C(=O)OC(C(=O)O)C(OC(=O)/C=C/c2ccc(O)c(OC)c2)C(=O)O)ccc1O` (stereo not drawn) [Substance L7, trans-diferoyl-tartaric acid ester], the “1st Wash” value in experiment [6] (setting [7]) stood at 748.2 nmol/L; in experiment [6] (setting [8]), 909.9 nmol/L; in experiment [6] (setting [9]) it was 1117.4 nmol/L; in experiment [6] (setting [10]), 129.6 nmol/L; in experiment [6] (setting [11]) it was 129.6 nmol/L; in experiment [6] (setting [12]), 176.5 nmol/L. Besides, the “1st Wash” value came out at 76.4 nmol/L in experiment [6] (setting [13]); 92.7 nmol/L in experiment [6] (setting [14]); 74.0 nmol/L in experiment [6] (setting [15]); 1425.3 nmol/L in experiment [6] (setting [16]); 1509.0 nmol/L in experiment [6] (setting [17]); 986.8 nmol/L in experiment [6] (setting [18]). For the same compound, the “1st Wash” value in experiment [6] (setting [19]) worked out at 1176.5 nmol/L; in experiment [6] (setting [20]), 627.7 nmol/L; in experiment [6] (setting [21]), 631.3 nmol/L. Further, the “2nd Wash” value in experiment [6] (setting [7]) was found to be 145.5 nmol/L; in experiment [6] (setting [8]) it was 180.4 nmol/L; in experiment [6] (setting [9]), 295.9 nmol/L; in experiment [6] (setting [10]) it was 6.6 nmol/L; in experiment [6] (setting [11]), 6.6 nmol/L; in experiment [6] (setting [12]), 33.7 nmol/L. Also, the “2nd Wash” value worked out at 104.2 nmol/L in experiment [6] (setting [13]); 30.1 nmol/L in experiment [6] (setting [14]); 11.2 nmol/L in experiment [6] (setting [15]); 213.1 nmol/L in experiment [6] (setting [16]); 199.2 nmol/L in experiment [6] (setting [17]); 221.7 nmol/L in experiment [6] (setting [18]). The “2nd Wash” value amounted to 285.4 nmol/L in experiment [6] (setting [19]), 200.9 nmol/L in experiment [6] (setting [20]) and 112.3 nmol/L in experiment [6] (setting [21]). The Filtrate in experiment [6] (setting [7]) was 3802.1 nmol/L; in experiment [6] (setting [8]), 1539.6 nmol/L; in experiment [6] (setting [9]) it was 2183.1 nmol/L; in experiment [6] (setting [10]), 1268.8 nmol/L; in experiment [6] (setting [11]) it was 1268.8 nmol/L; in experiment [6] (setting [12]), 1423.2 nmol/L. The Filtrate stood at 1740.7 nmol/L in experiment [6] (setting [13]); 1829.6 nmol/L in experiment [6] (setting [14]); 2746.8 nmol/L in experiment [6] (setting [15]); 4261.6 nmol/L in experiment [6] (setting [16]); 6243.7 nmol/L in experiment [6] (setting [17]); 3505.8 nmol/L in experiment [6] (setting [18]). Further, the Filtrate came out at 4900.2 nmol/L in experiment [6] (setting [19]), 5661.6 nmol/L in experiment [6] (setting [20]) and 4921.4 nmol/L in experiment [6] (setting [21]). Moreover, the Liberation in experiment [6] (setting [7]) is 22.7 nmol/L; in experiment [6] (setting [8]), 214.5 nmol/L; in experiment [6] (setting [9]) it was 510.7 nmol/L; in experiment [6] (setting [10]) it was 8.6 nmol/L; in experiment [6] (setting [11]) it was 8.6 nmol/L; in experiment [6] (setting [12]), 7.5 nmol/L. Further, the Liberation in experiment [6] (setting [13]) worked out at 16.9 nmol/L; in experiment [6] (setting [14]), 89.6 nmol/L; in experiment [6] (setting [15]) it was 111.9 nmol/L; in experiment [6] (setting [16]) it was 168.2 nmol/L; in experiment [6] (setting [17]) it was 232.9 nmol/L; in experiment [6] (setting [18]) it was 378.7 nmol/L. The Liberation in experiment [6] (setting [19]) was determined as 847.8 nmol/L; in experiment [6] (setting [20]), 538.8 nmol/L; in experiment [6] (setting [21]), 154.4 nmol/L.
